According to patent publication US9937186B2, “Sulfonamides derived from tricyclyl-2-aminocycloalkanols as anticancer agents” (ICAHN SCHOOL OF MEDICINE AT MOUNT SINAI, priority 2014, dated 2018):

What was measured:
[1] = system: lung cancer cell line H441; assay: In vivo cancer model: subcutaneous xenograft of lung cancer cell line H441, tumor volume; parameters: species or system mice; key to Mean Tumor Volume(T) / Median Tumor Volume(T): tumor volume in mm³; conditions: oral gavage, 30 days; for Mean Tumor Volume(T) / Median Tumor Volume(T): in mm³ (unit assumed)
Method: (§1) To assess the in vivo effects of the compounds, subcutaneous xenograft of lung cancer cell line H441 was generated. Cells (5×10^6) were injected into the right flank of 6- to 8-week-old male BALB/c nu/nu mice (Charles River, Wilmington, Mass.). Tumor volume was assessed twice a week by caliper measurement. Mice were randomized to treatment groups based on initial tumor volume average of 100 mm^3 per group. Mice were dosed by oral gavage with 15 mg/kg Example 1a QD, 15 mg/kg Example 1a BID, 50 mg/kg Example 1a QD, or 50 mg/kg Example 3a QD. Mouse tumors were measured twice a week for the duration of the study. Mouse body weights were recorded weekly and percentage of mice body weights during treatment was calculated as: weight at each time point/initial weight×100. […] Mice underwent treatment for 30 days and were sacrificed 2 hours after the last dose. Tumors were then excised and cut for both formalin-fixation and snap frozen in liquid nitrogen. […] No statistically significant toxicity was observed as judged from animal body weights of compound treated groups versus vehicle control group as shown in Table B below.

[2] = system: H1650 cells; assay: Colony formation (clonogenic) assay, H1650 cells; type: cell-based; conditions: Homo sapiens, NCI-H1650, 192 h; H1650, harvested 8 days after initial treatment
Method: (§2) Protocol for clonogenic assay follows Sangodkar et al., J Clin Invest 2012; 122:2637-51.
(§3) Cell culture and staining: For both A549luc and H1650 cells, 500 cells are seeded into each well of a 6-well plate and allowed to attach for 24 hours before drug treatment. The following day, cells are treated with either the appropriate dose of drug or an equivalent volume of DMSO (two replicates were treated for each condition). For each condition, depleted media was replaced with fresh media containing the equivalent drug dose four days after initial treatment. Cells are harvested either 7 (A549 luc) or 8 (H1650) days after initial treatment. Briefly, medium is aspirated from each well and the cells are washed twice with ice-cold PBS, then plates are allowed to dry at room temperature for 4 hours. Cells are fixed for one hour in a fixing solution consisting of 10% methanol and 10% glacial acetic acid in distilled water, then stained overnight in 1% (w/v) crystal violet dissolved in methanol. The next day, staining solution is aspirated from the wells and plates are washed gently with distilled water to remove excess stain before colony counting. Colonies are imaged on a ChemiDoc XRS+ (Bio-Rad) and images are exported as 8-bit TIFF files. Colonies are counted using the Colony Counter plugin in ImageJ, with colony size defined as between 4 and 400 square pixels, and minimum circularity set at 0.6. Duplicate wells are averaged to obtain a single value for each condition. Results (number of colonies) for A549 luc cells and results (number of colonies) for H1650 cells may be analyzed separately.

[3] = system: A549luc cells; assay: Colony formation (clonogenic) assay, A549luc cells; type: cell-based; conditions: Homo sapiens, 168 h; A549 luc, harvested 7 days after initial treatment
Method: as §2, §3

[4] = system: H1650 lung cancer cells; assay: Cell viability assay (MTT), H1650 lung cancer cells; type: cell-based; conditions: Homo sapiens, NCI-H1650; H1650 cells
Method: Cell Viability Assays (IC50 Determination)
Cell viability assays were performed according to Denizot, F. and R. Lang, Journal of Immunological Methods, 1986. 89(22): p. 271-277. H1650 lung cancer cells were plated at 150,000 cells per well in a 12 well plate. Twenty-four hours after plating, cells were treated as described with increasing concentrations of drug and control. Forty-eight hours after drug treatment, cells were treated with 100 μL of 3-(4,5-Dimethylthiazol-2-yl)-2,5-diphenyltetrazolium bromide (MTT) and incubated for 2 hours at 37 C. The MTT solution was subsequently replaced with 300 μL of n-propyl alcohol and re-aliquoted to a 96 well plate. Spectrophotometric analysis of each solution was performed using a 96 well plate reader at 600 nm in triplicate.

[5] = In vivo cancer model: body weights and signs of toxicity; parameters: species or system mice; conditions: for % T/C (Mean body weight) / % T/C (Median body weight) / Median body weight / Mean body weight: oral gavage; for signs of toxicity (mucous diarrhea, abdominal stiffness and weight loss): oral gavage 15 or 50 mg/kg, 30 days, BALB/c nu/nu mice
Method: as §1

[6] = 50 mg/kg QD, H441 xenograft mice

For `O=S(=O)(N[C@@H]1CCC[C@H](n2c3ccccc3c3ccccc32)[C@H]1O)c1ccc(OC(F)(F)F)cc1` (single isomer, unassigned) [Example 3a], the “% T/C (Mean Tumor Volume)” value ([1]; 50 mg/kg QD) was 32.13%, the “% T/C (Median Tumor Volume)” value ([1]; 50 mg/kg QD) was 37.62% and the “Mean Tumor Volume(T)” value ([1]; 50 mg/kg QD, BALB/c nu/nu mice) was 388.47. The “Median Tumor Volume(T)” value ([1]; 50 mg/kg QD) was 377.21, the GI50 [2] was 5 µM and the GI50 [3] was 7.5 µM. For the same compound, the GI50 [4] was 10 µM, the “% T/C (Mean body weight)” value ([5]; 50 mg/kg QD) was 93.96% and the “% T/C (Median body weight)” value ([5]; 50 mg/kg QD) was 92.70%. The Median body weight ([5]; 50 mg/kg QD) was 33.00 g, the Mean body weight [5, 6] was 32.74 g and the “signs of toxicity (mucous diarrhea, abdominal stiffness and weight loss)” value [5] was “no adverse signs were observed”.
In the case of `O=S(=O)(N[C@@H]1CCC[C@H](N2c3ccccc3Oc3ccccc32)[C@H]1O)c1ccc(OC(F)(F)F)cc1` (single isomer, unassigned) [Example 1a], the “% T/C (Mean Tumor Volume)” value ([1]; 15 mg/kg BID) is reported as 26.08%, the “% T/C (Median Tumor Volume)” value ([1]; 15 mg/kg BID) is reported as 27.37% and the “Mean Tumor Volume(T)” value ([1]; 15 mg/kg BID) is reported as 315.40. For the same compound, the “Median Tumor Volume(T)” value ([1]; 15 mg/kg BID) was 274.43, the “% T/C (Mean Tumor Volume)” value ([1]; 15 mg/kg QD) was 61.43% and the “% T/C (Median Tumor Volume)” value ([1]; 15 mg/kg QD) was 60.69%. The “Mean Tumor Volume(T)” value ([1]; 15 mg/kg QD) was 742.80, the “Median Tumor Volume(T)” value ([1]; 15 mg/kg QD) was 608.58 and the “% T/C (Mean Tumor Volume)” value ([1]; 50 mg/kg QD) was 36.50%. For the same compound, the “% T/C (Median Tumor Volume)” value ([1]; 50 mg/kg QD) was 33.78%, the “Mean Tumor Volume(T)” value ([1]; 50 mg/kg QD, BALB/c nu/nu mice) was 441.37 and the “Median Tumor Volume(T)” value ([1]; 50 mg/kg QD) was 338.69. It also gave a GI50 [2] of 5 µM, a GI50 [3] of 7.5 µM and a GI50 [4] of 5 µM. The “% T/C (Mean body weight)” value ([5]; 15 mg/kg BID) was 95.27%, the “% T/C (Median body weight)” value ([5]; 15 mg/kg BID) was 99.58% and the Mean body weight ([5]; 15 mg/kg BID) was 33.20 g. For the same compound, the Median body weight ([5]; 15 mg/kg BID) was 35.45 g, the “% T/C (Mean body weight)” value ([5]; 15 mg/kg QD) was 95.27% and the “% T/C (Median body weight)” value ([5]; 15 mg/kg QD) was 93.68%. For the same compound, the Mean body weight ([5]; 15 mg/kg QD) was 33.20 g, the Median body weight ([5]; 15 mg/kg QD) was 33.35 g and the “% T/C (Mean body weight)” value ([5]; 50 mg/kg QD) was 100.59%. For the same compound, the “% T/C (Median body weight)” value ([5]; 50 mg/kg QD) was 99.72%, the Median body weight ([5]; 50 mg/kg QD) was 35.50 g and the Mean body weight [5, 6] was 35.06 g. For the same compound, the “signs of toxicity (mucous diarrhea, abdominal stiffness and weight loss)” value [5] was “no adverse signs were observed”.
